Experimental data from US20170042152A1, “SAFENED HERBICIDAL COMPOSITIONS COMPRISING PYRIDINE CARBOXYLIC ACIDS” (priority 2015, published 2017).

Legend:
lambsquarters (CHEAL) [1] = experiment: Small plot field trial, weed growth reduction; type: in vivo, Chenopodium album; settings: 20 g ae/ha herbicide (triisopropanol amine salt), no safener, post-emergence, mean
durum wheat (TRZDU) = experiment: Small plot field trial, crop safety; type: in vivo, Triticum durum; settings: 20 g ae/ha herbicide (triisopropanol amine salt), no safener, post-emergence, mean
Description: (§1) The triisopropanol amine salts of herbicides of formulas I-G-A, I-G-B and I-G-C were tested with and without cloquintocet-mexyl in small plot field trials across various ecozones to evaluate the crop safety of these compounds on […] cereals including winter wheat and durum wheat.
(§2) All herbicide treatments were applied post-emergence in the spring to early summer. Herbicides were applied with bicycle or tractor-mounted sprayers using carbon dioxide (CO2) as a propellant. The sprayers delivered a uniform spray pattern that provided thorough coverage of the foliage using a 150 or 200 L/ha spray volume. At the time of herbicide applications, winter wheat was at the two leaf growth stage and durum wheat was at the 2-3 leaf growth stage.
(§3) Phytotoxicity to cereal crops was visually assessed as percent overall injury, compared to an untreated control plot. The overall injury assessments were based on visual ratings of growth inhibition, chlorosis, and delay in maturity. At late ratings (54-57 days after application), percent visual seed head deformity and reduction in seed formation were also assessed. Trials were designed as randomized complete blocks with four replicates. In general, three to four replicates were assessed for each treatment.

winter wheat (TRZAW) [2] = experiment: Small plot field trial, crop safety; type: in vivo, Triticum aestivum; settings: 20 g ae/ha herbicide (triisopropanol amine salt), no safener, post-emergence, mean
Description: as §1, §2, §3

Canada thistle (CIRAR) [3] = experiment: Small plot field trial, weed growth reduction; type: in vivo, Cirsuim arvensis; settings: 20 g ae/ha herbicide (triisopropanol amine salt), no safener, post-emergence, mean
kochia (KCHSC) = experiment: Greenhouse postemergence trial, weed efficacy; type: in vivo, Kochia scoparia; settings: herbicide 0 g ae/ha, 20-22 d
Description: (§4) Seeds of the desired test plant species were planted in Sun Gro MetroMix® 306 planting mixture, which typically has a pH of 6.0 to 6.8 and an organic matter content of about 30 percent, in plastic pots with a surface area of 103.2 square centimeters (cm^2). When required to ensure good germination and healthy plants, a fungicide treatment and/or other chemical or physical treatment was applied. The plants were grown for 7-36 days (d) in a greenhouse with an approximate 14-hour (h) photoperiod which was maintained at about 18° C. during the day and 17° C. during the night. Nutrients and water were added on a regular basis and supplemental lighting was provided with overhead metal halide 1000-Watt lamps as necessary. The plants were employed for testing when they reached the second or third true leaf stage.
(§5) Weighed amounts of technical material were dissolved in a volume of 97:3 volume per volume (v/v) acetone/dimethyl sulfoxide (DMSO) to stock solutions. […] Compound requirements are based upon a 12 milliliter (mL) application volume at a rate of 187 liters per hectare (L/ha). Stock solutions of the safeners were prepared following the same procedure. Spray solutions of the safeners and experimental compound mixtures were prepared by adding the stock solutions to the appropriate amount of dilution solution to form a 12 mL spray solution in two-way combinations. Formulated compounds were applied to the plant material with an overhead Mandel track sprayer equipped with 8002E nozzles calibrated to deliver 187 L/ha over an application area of 0.503 square meters (m^2) at a spray height of 18 inches (43 centimeters (cm)) above average plant canopy. Control plants were sprayed in the same manner with the solvent blank.
(§6) The treated plants and control plants were placed in a greenhouse as described above and watered by sub-irrigation to prevent wash-off of the test compounds. After 20-22 d, the condition of the test plants as compared with that of the control plants was determined visually and scored on a scale of 0 to 100 percent where 0 corresponds to no injury and 100 corresponds to complete kill. Colby's equation was used to determine the herbicidal effects expected from the mixtures.

lambsquarters (CHEAL) [4] = experiment: Greenhouse postemergence trial, weed efficacy; type: in vivo, Chenopodium album; settings: herbicide 0 g ae/ha, 20-22 d
Description: as §4, §5, §6

wild chamomile (MATCH) = experiment: Greenhouse postemergence trial, weed efficacy; type: in vivo, Matricaria chamomilla; settings: herbicide 0 g ae/ha, 20-22 d
Description: as §4
as §5, with “Control plants were sprayed in the same manner with the solvent blank.” left out
(§7) The treated plants and control plants were placed in a greenhouse as described above and watered by sub-irrigation to prevent wash-off of the test compounds. After 20-22 d, the condition of the test plants as compared with that of the control plants was determined visually and scored on a scale of 0 to 100 percent where 0 corresponds to no injury and 100 corresponds to complete kill. […]

spring wheat (TRZAS) = experiment: Greenhouse postemergence safening trial, crop phytotoxicity; type: in vivo, Triticum aestivum; settings: herbicide 0 g ae/ha, 20-22 d
Description: as §4, §5, §6

winter wheat (TRZAW) [5] = experiment: as above; type: in vivo, Triticum aestivum; settings: herbicide 0 g ae/ha, 20-22 d
Description: as §4, §5, §6

[6] = test system: bird's-eye speedwell (VERPE); experiment: Greenhouse postemergence trial, weed efficacy; type: in vivo, Veronica persica; settings: herbicide 0 g ae/ha, 20-22 d
Description: as §4, §5, §6

Canada thistle (CIRAR) [7] = experiment: Greenhouse postemergence trial, weed efficacy; type: in vivo, Cirsium arvense; settings: herbicide 0 g ae/ha, 20-22 d
Description: as §4
as §5, with “Control plants were sprayed in the same manner with the solvent blank.” left out
as §7

wild buckwheat (POLCO) = experiment: Greenhouse postemergence trial, weed efficacy; type: in vivo, Polygonum convulvus; settings: herbicide 0 g ae/ha, 20-22 d
Description: as §4, §5, §6

shepherd's purse (CAPBP) = experiment: Greenhouse postemergence trial, weed efficacy; type: in vivo, Capsella bura-pastoris; settings: herbicide 0 g ae/ha, 20-22 d
Description: as §4, §5, §6

spring barley (HORVS) = experiment: Greenhouse postemergence safening trial, crop phytotoxicity; type: in vivo, Hordeum vulgare; settings: herbicide 0 g ae/ha, 20-22 d
Description: as §4, §5, §6

Russian thistle (SASKR) = experiment: Greenhouse postemergence trial, weed efficacy; type: in vivo, Salsola iberica; settings: herbicide 0 g ae/ha, 20-22 d
Description: as §4, §5, §6

wild pansy (VIOTR) = experiment: Greenhouse postemergence trial, weed efficacy; type: in vivo, Viola tricolor; settings: herbicide 0 g ae/ha, 20-22 d
Description: as §4, §5, §6

pigweed (AMARE) = experiment: Greenhouse postemergence trial, weed efficacy; type: in vivo, Amaranthis retroflexus; settings: herbicide 0 g ae/ha, 20-22 d
Description: as §4
as §5, with “Control plants were sprayed in the same manner with the solvent blank.” left out
as §7

wild mustard (SINAR) = experiment: Greenhouse postemergence trial, weed efficacy; type: in vivo, Sinapis arvensis; settings: herbicide 0 g ae/ha, 20-22 d
Description: as §4, §5, §6

[8] = cloquintocet-mexyl 4.375 g ai/ha
[9] = cloquintocet-mexyl 8.75 g ai/ha
[10] = cloquintocet-mexyl 17.5 g ai/ha

SMILES: CC(F)(F)c1nc(C(=O)O)c(Cl)c(N)c1F [formula I-G-C]
- Growth reduction of CHEAL, % of untreated (lambsquarters (CHEAL) [1]): 100 % of untreated
- TRZDU Visual head deformation, % of untreated (durum wheat (TRZDU)): 23.6 % of untreated
- TRZDU Visual injury, % of untreated (durum wheat (TRZDU)): 33.6 % of untreated

SMILES: CC(F)c1nc(C(=O)O)c(Cl)c(N)c1F (centres unmarked) [formula I-G-B]
- Instances of TRZAW grain reduction, % of untreated (winter wheat (TRZAW) [2]): 83.3 % of untreated
- TRZAW grain formation reduction, % of untreated (winter wheat (TRZAW) [2]): 68.3 % of untreated
- Growth reduction of CIRAR, % of untreated (Canada thistle (CIRAR) [3]): 85 % of untreated
- Growth reduction of CHEAL, % of untreated (lambsquarters (CHEAL) [1]): 100 % of untreated
- TRZDU Visual head deformation, % of untreated (durum wheat (TRZDU)): 6.4 % of untreated
- TRZDU Visual injury, % of untreated (durum wheat (TRZDU)): 6.4 % of untreated

SMILES: CCCCCC(C)OC(=O)COc1ccc(Cl)c2cccnc12 (centres unmarked) [Cloquintocet-mexyl, cloquintocet-mexyl]
- % visual injury KCHSC Ob (kochia (KCHSC); [8]): 0%
- % visual injury KCHSC Ob (kochia (KCHSC); [9]): 0%
- % visual injury KCHSC Ob (kochia (KCHSC); [10]): 0%
- % visual injury KCHSC Ob (kochia (KCHSC); cloquintocet-mexyl 20 g ai/ha): 0%
- % visual injury KCHSC Ob (kochia (KCHSC); cloquintocet-mexyl 35 g ai/ha): 0%
- % visual injury KCHSC Ob (kochia (KCHSC); cloquintocet-mexyl 40 g ai/ha): 0%
- % visual injury KCHSC Ob (kochia (KCHSC); cloquintocet-mexyl 70 g ai/ha): 0%
- % visual injury KCHSC Ob (kochia (KCHSC); cloquintocet-mexyl 80 g ai/ha): 0%
- % visual injury CHEAL Ob (lambsquarters (CHEAL) [4]; cloquintocet-mexyl 20 g ai/ha): 0%
- % visual injury CHEAL Ob (lambsquarters (CHEAL) [4]; cloquintocet-mexyl 40 g ai/ha): 0%
- % visual injury CHEAL Ob (lambsquarters (CHEAL) [4]; cloquintocet-mexyl 80 g ai/ha): 0%
- % visual injury MATCH Ob (wild chamomile (MATCH); cloquintocet-mexyl 20 g ai/ha): 0%
- % visual injury MATCH Ob (wild chamomile (MATCH); cloquintocet-mexyl 40 g ai/ha): 0%
- % visual injury MATCH Ob (wild chamomile (MATCH); cloquintocet-mexyl 80 g ai/ha): 0%
- % visual injury TRZAS Ob (spring wheat (TRZAS); [8]): 0%
- % visual injury TRZAS Ob (spring wheat (TRZAS); [9]): 0%
- % visual injury TRZAS Ob (spring wheat (TRZAS); [10]): 0%
- % visual injury TRZAS Ob (spring wheat (TRZAS); cloquintocet-mexyl 35 g ai/ha): 0%
- % visual injury TRZAS Ob (spring wheat (TRZAS); cloquintocet-mexyl 70 g ai/ha): 0%
- % visual injury TRZAW Ob (winter wheat (TRZAW) [5]; cloquintocet-mexyl 20 g ai/ha): 0%
- % visual injury TRZAW Ob (winter wheat (TRZAW) [5]; cloquintocet-mexyl 40 g ai/ha): 0%
- % visual injury TRZAW Ob (winter wheat (TRZAW) [5]; cloquintocet-mexyl 80 g ai/ha): 0%
- % visual injury VERPE Ob [6, 8]: 0%
- % visual injury VERPE Ob [6, 9]: 0%
- % visual injury VERPE Ob [6, 10]: 0%
- % visual injury VERPE Ob ([6]; cloquintocet-mexyl 35 g ai/ha): 0%
- % visual injury VERPE Ob ([6]; cloquintocet-mexyl 70 g ai/ha): 0%
- % visual injury CIRAR Ob (Canada thistle (CIRAR) [7]; cloquintocet-mexyl 20 g ai/ha): 0%
- % visual injury CIRAR Ob (Canada thistle (CIRAR) [7]; cloquintocet-mexyl 40 g ai/ha): 0%
- % visual injury CIRAR Ob (Canada thistle (CIRAR) [7]; cloquintocet-mexyl 80 g ai/ha): 0%
- % visual injury POLCO Ob (wild buckwheat (POLCO); [8]): 0%
- % visual injury POLCO Ob (wild buckwheat (POLCO); [9]): 0%
- % visual injury POLCO Ob (wild buckwheat (POLCO); [10]): 0%
- % visual injury POLCO Ob (wild buckwheat (POLCO); cloquintocet-mexyl 35 g ai/ha): 0%
- % visual injury POLCO Ob (wild buckwheat (POLCO); cloquintocet-mexyl 70 g ai/ha): 0%
- % visual injury CAPBP Ob (shepherd's purse (CAPBP); cloquintocet-mexyl 20 g ai/ha): 0%
- % visual injury CAPBP Ob (shepherd's purse (CAPBP); cloquintocet-mexyl 40 g ai/ha): 0%
- % visual injury CAPBP Ob (shepherd's purse (CAPBP); cloquintocet-mexyl 80 g ai/ha): 0%
- % visual injury HORVS Ob (spring barley (HORVS); [8]): 0%
- % visual injury HORVS Ob (spring barley (HORVS); [9]): 0%
- % visual injury HORVS Ob (spring barley (HORVS); [10]): 0%
- % visual injury HORVS Ob (spring barley (HORVS); cloquintocet-mexyl 20 g ai/ha): 0%
- % visual injury HORVS Ob (spring barley (HORVS); cloquintocet-mexyl 35 g ai/ha): 0%
- % visual injury HORVS Ob (spring barley (HORVS); cloquintocet-mexyl 40 g ai/ha): 0%
- % visual injury HORVS Ob (spring barley (HORVS); cloquintocet-mexyl 70 g ai/ha): 0%
- % visual injury HORVS Ob (spring barley (HORVS); cloquintocet-mexyl 80 g ai/ha): 0%
- % visual injury SASKR Ob (Russian thistle (SASKR); [8]): 0%
- % visual injury SASKR Ob (Russian thistle (SASKR); [9]): 0%
- % visual injury SASKR Ob (Russian thistle (SASKR); [10]): 0%
- % visual injury SASKR Ob (Russian thistle (SASKR); cloquintocet-mexyl 35 g ai/ha): 0%
- % visual injury SASKR Ob (Russian thistle (SASKR); cloquintocet-mexyl 70 g ai/ha): 0%
- % visual injury VIOTR Ob (wild pansy (VIOTR); [8]): 0%
- % visual injury VIOTR Ob (wild pansy (VIOTR); [9]): 0%
- % visual injury VIOTR Ob (wild pansy (VIOTR); [10]): 0%
- % visual injury VIOTR Ob (wild pansy (VIOTR); cloquintocet-mexyl 20 g ai/ha): 0%
- % visual injury VIOTR Ob (wild pansy (VIOTR); cloquintocet-mexyl 35 g ai/ha): 0%
- % visual injury VIOTR Ob (wild pansy (VIOTR); cloquintocet-mexyl 40 g ai/ha): 0%
- % visual injury VIOTR Ob (wild pansy (VIOTR); cloquintocet-mexyl 70 g ai/ha): 0%
- % visual injury VIOTR Ob (wild pansy (VIOTR); cloquintocet-mexyl 80 g ai/ha): 0%
- % visual injury AMARE Ob (pigweed (AMARE); cloquintocet-mexyl 20 g ai/ha): 0%
- % visual injury AMARE Ob (pigweed (AMARE); cloquintocet-mexyl 40 g ai/ha): 0%
- % visual injury AMARE Ob (pigweed (AMARE); cloquintocet-mexyl 80 g ai/ha): 0%
- % visual injury SINAR Ob (wild mustard (SINAR); cloquintocet-mexyl 20 g ai/ha): 0%
- % visual injury SINAR Ob (wild mustard (SINAR); cloquintocet-mexyl 40 g ai/ha): 0%
- % visual injury SINAR Ob (wild mustard (SINAR); cloquintocet-mexyl 80 g ai/ha): 0%
